Marks after values point to notes of the source that are not given here.
What was measured:
C57BL/6 mice [1] = experiment: Preliminary in vivo toxicity, daily s.c. dosing for 16 days; parameters: species or system mouse; conditions: s.c. daily for 16 days, doses up to at least 10 mg/kg per day
Excerpt: Given the lack of adverse reactions in vivo, we next sought to test α-NETA for in vivo efficacy in the EAE model of MS.
The mice were then euthanized and vital organs weighed. Each symbol represents an individual mouse, and the bars indicate mean ± SEM, n = 3 mice per group. […] Control mice received either captisol vehicle or no treatment. […] For days 1–15, n = 52 mice per group; for days 16–27, n = 24–25 mice per group. * p<0.05 by Mann-Whitney U test.

C57BL/6 mice [2] = experiment: EAE induced by active immunization with MOG35-55/CFA in C57BL/6 mice; format: in vivo, mouse
C57BL/6 mice [3] = experiment: EAE induced by adoptive transfer of MOG-reactive lymphocytes in C57BL/6 mice; format: in vivo, mouse
CMKLR1 KO mice = experiment: EAE induced by active immunization in CMKLR1 KO mice; format: in vivo, mouse; conditions: 10 mg/kg daily s.c.
[4] = within 5 min; depending on the temperature of incubation
[5] = biological target: G9a histone lysine methyltransferase; parameters: method as in PubChem, 2014b; ref 23; conditions: Purified enzyme; ref PubChem, 2014b; cited from earlier work
[6] = biological target: Tyrosyl-DNA phosphodiesterase 1 + camptothecin; parameters: method as in PubChem, 2014a; conditions: Cell-based (process); ref PubChem, 2014a; cited from earlier work
[7] = system: Nuclear factor of activated T cells (NFAT); parameters: method as in PubChem, 2014a; conditions: Cell-based; ref PubChem, 2014a; cited from earlier work
DNA re-replication = system: DNA re-replication; parameters: method as in PubChem, 2014b; conditions: Cell-based (process); ref PubChem, 2014b; read-out: Agonist activity, EC50 (µM), DNA re-replication; cited from earlier work
[8] = system: Marburg virus binding/entry; conditions: Cell-based; ref PubChem, 2014b; cited from earlier work
IL-6/STAT signaling = system: IL-6/STAT signaling; parameters: method as in PubChem, 2014a; conditions: Cell-based; ref PubChem, 2014a; cited from earlier work
[9] = biological target: Choline acetyltransferase; conditions: Purified enzyme; ref Sastry et al., 1988a; cited from earlier work
[10] = system: MPP8 chromodomain/methylated histones; parameters: method as in PubChem, 2014b; conditions: Purified protein (binding); ref PubChem, 2014b; cited from earlier work
[11] = system: Lassa virus binding/entry; conditions: Cell-based; ref PubChem, 2014b; cited from earlier work
p53 mutants = system: p53 mutants; parameters: method as in PubChem, 2014a; conditions: Cell-based (process); ref PubChem, 2014a; cited from earlier work
[12] = biological target: 15-Hydroxyprostaglandin dehydrogenase; parameters: method as in PubChem, 2014b; conditions: Purified enzyme; ref PubChem, 2014b; cited from earlier work
[13] = system: Bacillus anthracis lethal toxin; conditions: Cell-based (process); ref PubChem, 2014a; cited from earlier work
Acetylcholinesterase = biological target: Acetylcholinesterase; parameters: method as in Sastry et al., 1988a; ref 19; conditions: Purified enzyme; ref Sastry et al., 1988a; cited from earlier work
[14] = system: carnitine acetyletransferase; parameters: method as in PMID 3174803; conditions: cited from earlier work
Cytochrome p450 3A4 = conditions: cited from earlier work
Cytochrome p450 1A2 = conditions: cited from earlier work
Cytochrome p450 2D6 = conditions: cited from earlier work
Cytochrome p450 2C19 = conditions: cited from earlier work
CCR9 = CCR9 (Homo sapiens, UniProt P51686); experiment: Transwell chemotaxis of CCR9+ MOLT-4 cells to CCL25
Sequence of CCR9 (P51686 whole entry): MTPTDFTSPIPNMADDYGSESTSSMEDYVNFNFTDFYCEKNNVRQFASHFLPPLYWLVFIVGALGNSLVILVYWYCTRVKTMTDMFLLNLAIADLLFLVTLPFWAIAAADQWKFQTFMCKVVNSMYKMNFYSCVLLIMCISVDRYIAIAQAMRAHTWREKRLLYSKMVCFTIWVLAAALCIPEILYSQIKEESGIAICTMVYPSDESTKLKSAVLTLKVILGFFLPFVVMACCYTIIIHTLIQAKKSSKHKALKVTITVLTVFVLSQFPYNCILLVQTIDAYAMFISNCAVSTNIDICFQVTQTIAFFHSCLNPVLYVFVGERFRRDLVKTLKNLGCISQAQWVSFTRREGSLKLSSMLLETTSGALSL

CXCR5 = CXCR5 (Homo sapiens, UniProt P32302); experiment: Transwell chemotaxis of CXCR5+ NC-37 cells to CXCL13
Sequence of CXCR5 (P32302 whole entry): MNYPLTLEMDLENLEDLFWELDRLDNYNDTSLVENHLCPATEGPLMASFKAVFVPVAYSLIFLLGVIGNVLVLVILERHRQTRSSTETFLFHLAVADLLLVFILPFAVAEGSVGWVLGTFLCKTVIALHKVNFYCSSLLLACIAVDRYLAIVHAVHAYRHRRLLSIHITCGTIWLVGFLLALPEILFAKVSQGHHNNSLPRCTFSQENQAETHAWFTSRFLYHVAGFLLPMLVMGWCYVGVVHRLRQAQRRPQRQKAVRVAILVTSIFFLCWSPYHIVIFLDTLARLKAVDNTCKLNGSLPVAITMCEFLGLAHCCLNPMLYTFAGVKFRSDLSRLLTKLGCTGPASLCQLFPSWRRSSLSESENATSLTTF

GPR1 = GPR1 (Homo sapiens, UniProt P46091); experiment: β-arrestin2 (β-ARR2) assay, GPR1/CHO cells, chemerin-stimulated
Sequence of GPR1 (P46091 whole entry, species assumed): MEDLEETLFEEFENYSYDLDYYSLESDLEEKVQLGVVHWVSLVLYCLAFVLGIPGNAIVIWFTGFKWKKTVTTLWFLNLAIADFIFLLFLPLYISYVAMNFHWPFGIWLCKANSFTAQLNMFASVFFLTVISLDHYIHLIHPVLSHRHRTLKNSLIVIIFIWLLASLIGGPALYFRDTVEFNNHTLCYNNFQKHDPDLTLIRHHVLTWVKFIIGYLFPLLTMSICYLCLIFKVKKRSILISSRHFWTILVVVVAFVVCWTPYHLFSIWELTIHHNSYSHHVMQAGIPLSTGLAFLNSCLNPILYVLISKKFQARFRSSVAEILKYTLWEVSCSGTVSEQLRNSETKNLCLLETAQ

huCMKLR1 = biological target: T1, huCMKLR1 (Homo sapiens, UniProt Q99788); experiment: Transwell chemotaxis of huCMKLR1/L1.2 transfectants to chemerin
T1 sequence (Q99788 1-373): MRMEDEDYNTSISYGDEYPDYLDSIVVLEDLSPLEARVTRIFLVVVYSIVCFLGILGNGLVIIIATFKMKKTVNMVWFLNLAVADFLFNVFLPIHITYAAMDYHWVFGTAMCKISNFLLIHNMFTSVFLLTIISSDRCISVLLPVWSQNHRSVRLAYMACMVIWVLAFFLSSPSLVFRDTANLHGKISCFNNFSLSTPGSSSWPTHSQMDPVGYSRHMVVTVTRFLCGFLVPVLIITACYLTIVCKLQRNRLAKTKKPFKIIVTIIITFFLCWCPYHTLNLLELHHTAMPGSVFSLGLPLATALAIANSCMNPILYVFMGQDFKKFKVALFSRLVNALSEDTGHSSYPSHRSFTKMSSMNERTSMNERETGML

C57BL/6 mice [15] = experiment: Histology and flow cytometry of CNS and spleen leukocytes in EAE mice (active immunization)

SMILES: C[N+](C)(C)CCC(=O)c1cccc2ccccc12.[I-] [α-NETA, 2-(α-naphthoyl)ethyltrimethylammonium iodide]
- in vivo tolerability (survival, weight gain, appearance, behavior, organ wet weight) (C57BL/6 mice [1]): well tolerated
- mice that did not develop clinical EAE by day 27 (C57BL/6 mice [2]; 10 mg/kg daily s.c.): ~30%
- suppression of clinical signs beyond first appearance of disease in control mice (C57BL/6 mice [2]; 10 mg/kg daily s.c.): completely suppressed clinical signs for an average of nine days
- severity of clinical disease (C57BL/6 mice [2]; 10 mg/kg daily s.c., through day 25): significantly reduced
- onset of EAE (C57BL/6 mice [2]; doses as low as 3 mg/kg daily s.c., not shown): significantly delayed the onset of EAE
- effect on ongoing clinical EAE (C57BL/6 mice [2]; treatment initiated upon onset of clinical signs, data not shown): failed to reverse ongoing clinical EAE
- suppression of clinical signs beyond first appearance of disease in control mice (C57BL/6 mice [3]; 10 mg/kg daily s.c.): completely suppressed clinical signs for an average of six days
- severity of clinical disease (C57BL/6 mice [3]; 10 mg/kg daily s.c., day 15–19): significantly reduced
- reduction of the incidence of EAE by day 24 (C57BL/6 mice [3]; 10 mg/kg daily s.c., did not reach statistical significance): ~25%
- ability of MOG-reactive lymphocytes from treated donor mice to induce EAE by passive transfer (C57BL/6 mice [3]; donor mice treated once daily for ten days): fully capable of inducing EAE by passive transfer
- disease incidence by day 20 (CMKLR1 KO mice; not statistically significant): 40%
- Mean day of onset (SEM) (CMKLR1 KO mice; only animals that developed EAE, not significant (p = 0.18)): 14.3 (1.5) ^ns
- parent compound no longer detectable by mass spectrometry after dissolution in 10% captisol [4]: 40–60%
- IC50 [5]: 0.5 µM
- IC50 [6]: 0.58 µM
- IC50 [7]: 1.3 µM
- EC50 (DNA re-replication): 1.8 µM
- IC50 [8]: 4.5 µM
- IC50 (IL-6/STAT signaling): 6.3 µM
- IC50 [9]: 9 µM
- IC50 [10]: 10 µM
- IC50 [11]: 10 µM
- IC50 (p53 mutants): 13 µM
- IC50 [12]: 14 µM
- IC50 [13]: 25 µM
- IC50 (Acetylcholinesterase): 300 µM
- activity against carnitine acetyletransferase [14]: inactive
- IC50 (Cytochrome p450 3A4): 0.2 µM
- IC50 (Cytochrome p450 1A2): 8 µM
- IC50 (Cytochrome p450 2D6): ≥ 10 µM
- IC50 (Cytochrome p450 2C19): ≥ 10 µM
- IC50 (µM), Cytochrome p450 2C19 (Cytochrome p450 2C19): Inactive ^j
- IC50 (CCR9): ≥ 10 µM
- inhibition of migration of CCR9+ MOLT4 cells to CCL25 (CCR9; 1, 3, and 10 µM): did not inhibit
- IC50 (CXCR5): ≥ 10 µM
- inhibition of migration of CXCR5+ NC-37 cells to CXCL13 (CXCR5; 1, 3, and 10 µM): did not inhibit
- IC50 (GPR1): 3.4 µM
- fold less potent against GPR1 compared to activity against CMKLR1 (GPR1; β-arrestin2 assay): 10 fold
- IC50 (huCMKLR1): 6.5 ± 0.7 µM
- total cells in the spleen (C57BL/6 mice [15]; 16 days p.i., did not reach statistical significance): more total cells in the spleen
- total cells in the CNS (C57BL/6 mice [15]; 16 days p.i., p<0.05): fewer total cells in the CNS
- total numbers of splenic NK cells (C57BL/6 mice [15]; EAE mice, not shown): did not induce detectable changes
- numbers of CNS lesions (C57BL/6 mice [15]; chronic EAE, day 37 p.i., data not shown): no differences in numbers of CNS lesions
- leukocyte accumulation within the CNS (T cells, B cells, dendritic cells, macrophages) (C57BL/6 mice [15]; day 16 p.i., no apparent preferential or selective effect on subsets): suppressed leukocyte accumulation
- meningeal and parenchymal CNS inflammatory foci (C57BL/6 mice [15]; peak acute EAE, day 16 p.i.): fewer meningeal and parenchymal CNS inflammatory foci
- % of NK cells (CD3-NK1.1+) in lymphocyte scatter gate (C57BL/6 mice [15]; spleen, day 16 post-EAE induction, n = 5 mice per group): 0.8 (0.1) ^* %
